Source: US20030170250A1, “Local delivery of long lasting therapeutic agents” (priority 1998, published 2003)

Tested on: carotid artery
Assay: In vivo addition of NHS-Rhodamine: local incubation in isolated carotid artery chamber, fluorescence of the artery
Parameters: species or system New Zealand rabbits
Details: 100 μl of 500 μM, 3 minutes incubation in 1-cm chamber, washed with 0.9% sodium chloride
Procedure: Both carotid arteries were isolated and blood flows were measured. A catheter (22G) was inserted in the arterial segment and rinsed with 0.9% sodium chloride via catheter until there was no more visible evidence of blood in the segment.
A 1-cm incubation chamber was created by ligatures in the segment area. The incubation chamber was flushed three times with 1 mL of 0.9% sodium chloride. A solution of 100 μl of 500 μM NHS-Rhodamine was prepared and incubated in the incubation chamber for 3 minutes. The excess of rhodamine was withdrawn with a 1 mL syringue. The incubation chamber was washed once again with 3 times […] of 0.9% sodium chloride. The incubation chamber was then removed from the rabbit, cut in three pieces and dipped in 10% formalin for further evaluation.

| Substance | fluorescence of treated arteries |
| --- | --- |
| Rhodamine | little fluorescence over background |
| Rhodamine Green™-X, succinimidyl ester, hydrochloride mixed isomers [NHS-Rhodamine] | dramatic levels of fluorescence |
